Experiments:
[1] = target: T1, AChE (Electrophorus electricus, UniProt O42275); assay: biochemical; settings: electric eel AChE; mean from three different assays
T1 construct: AChE enzyme, obtained from electric eel; from tissue; host or cells: electric eel
Experimental: Acetylcholinesterase enzyme inhibition assay was performed according to our previous studies. […] The substrates of acetylthiocholine iodide (AChI) and 5,5’-dithiobis(2-nitro-benzoic acid) (DTNB) was used for cholinergic enzymatic reaction. For this purpose, 1 mL of Tris / HCl buffer (1.0 M, pH 8.0) and 10 μL of different concentrations of sample solution were dissolved in deionized water. Then, an aliquot of (50 μL) AChE enzyme was transferred and incubated at room temperature for 10 min. After the incubation period, an aliquot of DTNB (0.5 mM, 50 μL) was added. Then, the enzymatic reaction was started by adding 50 μL of AChI (10 mM).

[2] = target: hCA I (Homo sapiens, UniProt P00915); assay: biochemical
Experimental: (§1) CA inhibition assay was recorded according to previous studies [4,10,27,49,60–64]. The hCA I and II isoenzymes were purified from human red blood cells by sepharose-4B-L-tyrosine-sulfanilamide affinity chromatography [65], which was used as an affinity matrix for selective retention of both hCA isoenzymes [27,66]. […] After sepharose-4B-L-tyrosine-sulfanilamide affinity chromatography, the enzyme quantity was spectrophotometrically measured at 280 nm [68]. […] Purity controls of both CA isoenzymes were performed according to the Laemmli procedure as described in previous studies. Both isoenzymes were visualized by two different acrylamide concentrations (10% and 3% acrylamide), containing 0.1% sodium dodecyl sulfate (SDS) [69,70].

[3] = target: hCA II (Homo sapiens, UniProt P00918); assay: Carbonic anhydrase inhibition assay (esterase, p-nitrophenylacetate), hCA II
Experimental: as §1

T1 sequence (O42275 24-633): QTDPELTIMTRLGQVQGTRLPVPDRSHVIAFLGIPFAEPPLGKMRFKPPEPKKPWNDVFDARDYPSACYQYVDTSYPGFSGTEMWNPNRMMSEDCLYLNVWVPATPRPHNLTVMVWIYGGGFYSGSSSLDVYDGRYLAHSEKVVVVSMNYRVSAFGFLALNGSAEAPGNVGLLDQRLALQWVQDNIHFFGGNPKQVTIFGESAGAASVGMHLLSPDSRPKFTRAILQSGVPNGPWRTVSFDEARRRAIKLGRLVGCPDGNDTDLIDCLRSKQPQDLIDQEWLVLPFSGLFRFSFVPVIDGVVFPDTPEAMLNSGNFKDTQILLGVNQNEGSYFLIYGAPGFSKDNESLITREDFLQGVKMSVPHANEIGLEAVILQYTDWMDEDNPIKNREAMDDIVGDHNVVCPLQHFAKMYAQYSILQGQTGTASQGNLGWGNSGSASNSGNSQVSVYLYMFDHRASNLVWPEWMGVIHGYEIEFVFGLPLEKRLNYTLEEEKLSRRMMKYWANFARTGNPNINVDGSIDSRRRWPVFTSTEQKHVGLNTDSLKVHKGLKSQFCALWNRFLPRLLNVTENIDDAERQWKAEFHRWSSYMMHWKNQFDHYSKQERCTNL
Chain of hCA I (P00915 whole entry): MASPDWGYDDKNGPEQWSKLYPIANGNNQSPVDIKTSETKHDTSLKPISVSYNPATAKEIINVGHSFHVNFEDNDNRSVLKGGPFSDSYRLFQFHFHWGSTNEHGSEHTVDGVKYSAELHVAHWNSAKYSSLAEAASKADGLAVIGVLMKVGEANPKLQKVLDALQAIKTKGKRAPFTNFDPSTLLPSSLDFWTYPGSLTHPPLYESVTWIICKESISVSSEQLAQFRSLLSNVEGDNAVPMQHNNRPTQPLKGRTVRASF

**Q.** What does the source list for O=C(C=Cc1ccc(C(F)(F)F)cc1)c1ccc2c(c1)oc(=O)n2CN1CCCC1 [Compound 1d, 3-(Pyrrolidin-1-ylmethyl)-6-{3-[4-(trifluoromethyl)phenyl]acryloyl}benzoxazol-2(3H)-one]?
**A.** Ki [1]: 97.6 ± 14.4 nM; Ki [2]: 12.3 ± 1.2 nM; Ki [3]: 19 ± 3 nM

**Q.** With CN1CCN(Cn2c(=O)oc3cc(C(=O)C=Cc4ccc(C(F)(F)F)cc4)ccc32)CC1 [Compound 1g, 3-[(4-Methylpiperazin-1-yl)methyl]-6-{3-[4-(trifluoromethyl)phenyl]acryloyl} benzoxazol-2(3H)-one] as the compound, how does the Ki [1] read?
**A.** 48.5 ± 10.2 nM

**Q.** And the Ki [2]?
**A.** 53 ± 1.8 nM

**Q.** What about the Ki [3] of the same compound?
**A.** 8.6 ± 1.9 nM

**Q.** O=C(C=Cc1ccc(C(F)(F)F)cc1)c1ccc2c(c1)oc(=O)n2CN1CCOCC1 [Compound 1f, 3-(Morpholinomethyl)-6-{3-[4-(trifluoromethyl)phenyl]acryloyl}benzoxazol-2(3H)-one] was tested. Which Ki [1] did it give?
**A.** 35.2 ± 2 nM

**Q.** What about the Ki [2] of the same compound?
**A.** 20.4 ± 1.7 nM

**Q.** And the Ki [3]?
**A.** 41 ± 5.5 nM

**Q.** CN(C)Cn1c(=O)oc2cc(C(=O)C=Cc3ccc(C(F)(F)F)cc3)ccc21 [Compound 1a, 3-[(Dimethylamino)methyl]-6-{3-[4-(trifluoromethyl)phenyl]acryloyl}benzoxazol-2(3H)-one] was tested. Which Ki [1] did it give?
**A.** 130 ± 17.6 nM

**Q.** And the Ki [2]?
**A.** 31.4 ± 5.3 nM

**Q.** What about the Ki [3] of the same compound?
**A.** 23.3 ± 2 nM

**Q.** Which Ki [1] does the source give for O=C(/C=C/c1ccc(C(F)(F)F)cc1)c1ccc2[nH]c(=O)oc2c1 [Compound 1, (E )-6-{3-[4-(trifluoromethyl)phenyl]acryloyl}benzoxazol-2(3H )-one] here?
**A.** 159 ± 33.5 nM

**Q.** What about the Ki [2] of the same compound?
**A.** 154 ± 9.3 nM

**Q.** What about the Ki [3] of the same compound?
**A.** 33.6 ± 4.5 nM

**Q.** With CCCN(CCC)Cn1c(=O)oc2cc(C(=O)C=Cc3ccc(C(F)(F)F)cc3)ccc21 [Compound 1c, 3-[(Dipropylamino)methyl]-6-{3-[4-(trifluoromethyl)phenyl]acryloyl}benzoxazol-2(3H)-one] as the compound, how does the Ki [1] read?
**A.** 116 ± 32 nM

**Q.** And the Ki [2]?
**A.** 22.3 ± 2.3 nM

**Q.** What about the Ki [3] of the same compound?
**A.** 24.6 ± 4.7 nM

**Q.** What does the source list for CCN(CC)Cn1c(=O)oc2cc(C(=O)C=Cc3ccc(C(F)(F)F)cc3)ccc21 [Compound 1b, 3-[(Diethylamino)methyl]-6-{3-[4-(trifluoromethyl)phenyl]acryloyl}benzoxazol-2(3H)-one]?
**A.** Ki [1]: 142 ± 22.1 nM; Ki [2]: 36.8 ± 7.7 nM; Ki [3]: 37.6 ± 4.3 nM

**Q.** Which Ki [1] does the source give for O=C(C=Cc1ccc(C(F)(F)F)cc1)c1ccc2c(c1)oc(=O)n2CN1CCCCC1 [Compound 1e, 3-(Piperidin-1-ylmethyl)-6-(3-(4-(trifluoromethyl)phenyl)acryloyl)benzoxazol-2(3H)-one] here?
**A.** 84 ± 19.2 nM

**Q.** What about the Ki [2] of the same compound?
**A.** 27.6 ± 2.9 nM

**Q.** And the Ki [3]?
**A.** 18.1 ± 3.5 nM

Reference: article PMC8326492, “Novel Mannich bases with strong carbonic anhydrases and acetylcholinesterase inhibition effects: 3-(aminomethyl)-6-{3-[4-(trifluoromethyl)phenyl]acryloyl}-2(3H)-benzoxazolones” (Turkish Journal of Chemistry, 2021)
